This is an account of results in patent US20220308062A1, “METHODS FOR PREDICTING DRUG RESPONSIVENESS IN SAMPLES FROM CANCER SUBJECTS” (Board of Regents, The University of Texas System, priority 2019, published 2022).

Entries after “also recorded” stand apart in the source; their conditions may differ.

Data set [1] has as its system patients with advanced tumors. The conditions noted are these: early results, ref [21]; cited from earlier work.
Data set [2] deals with H2009 cells. Put plainly: Atomic force microscopy, H2009. It is filed as cell-based, human. The text has this: Atomic force microscopy. […] Briefly, live cells cultured were imaged in 60 mm dishes with a Nanoscope Catalyst AFM (Bruker, Billerica, Mass.) mounted on a Nikon Ti inverted epifluorescent microscope. […] To collect the nanomechanical phenotypes of single cells immersed in culture media, 30×30 μm images were captured with a resolution of 256×256 pixels using the PeakForce Quantitative Nanomechanical Mapping (QNM) AFM (Bruker, Billerica, Mass.). For imaging, […]-AIR (Bruker, Billerica, Mass.) probes were applied with the nominal spring constant 0.4 N/m. Following the Sneddon model and the Sokolov's rules, nanomechanical parameters were calculated with Nanoscope Analysis software v.1.7 (Bruker, Billerica, Mass.) using retrace images. Images of at least 15 cells representing each tested case in three biological replicates were collected.
Atomic force microscopy (AFM). […] Briefly, live cells cultured in 60 mm dishes were imaged with a Nanoscope Catalyst AFM (Bruker) mounted on a Nikon Ti inverted epifluorescent microscope. […] To collect the nanomechanical phenotypes of single cells immersed in culture media, 30×30 μm images were captured with a resolution of 256×256 pixels using the Peak Force Quantitative Nanomechanical Mapping (QNM) AFM (Bruker). For imaging, […]-AIR probes were used with the nominal spring constant 0.4 N/m. Following the Sneddon model and the Sokolov's rules, nanomechanical parameters were calculated with Nanoscope Analysis software v.1.7 using retrace images.

A further data set deals with A549 mouse xenograft. Put plainly: Xenograft study of TP-0903 treatment. It is filed as in vivo. The conditions noted are these: oral 120 mg/kg twice weekly or 80 mg/kg daily. The procedure:
Xenograft study of TP-0903 treatment. Mouse xenografts were implanted subcutaneously in the hind flank of the athymic nude mice. Tumor volumes were allowed to grow to a medium size (approximately 100 mm^3) before stratification and initiation of dosing. General health, tumor volumes, and bodyweights were followed over the course of the study.
Xenograft study of TP-0903 treatment. Mouse xenografts were implanted subcutaneously in the hind flank of the athymic nude mice. Tumor volumes were grown to a medium size (˜100 mm^3) before stratification and dose initiation. General health, tumor volumes, and bodyweights were followed over the course of the study.

A further data set concerns H226 cells. Description: Proliferation assay (IncuCyte ZOOM), H226. The conditions noted are these: Homo sapiens, NCI-H226; H226 squamous cell cancer line; read-out: IC50 from proliferation curves. It is filed as cell-based. How it is done: (§1) Analysis was performed using IncuCyte ZOOM (Essen BioScience) with images acquired every 3 hr for up to 72 hr. Four images (proliferation) and one image (wound healing) were captured per well for each time point. Data were normalized to controls, and values for 50% effective concentration were calculated using Prism V7.0 (GraphPad software, San Diego, Calif.).

The test system of data set [3] is A549, H2009 and H226 cell lines. Put plainly: Wound healing (migration) assay. It is filed as cell-based, human. The procedure:
as §1
(§2) In vitro phenotypic assay. […] Proliferation and migration curves were generated using IncuCyte ZOOM (Essen BioScience) with images acquired every 3 hr over a 72 hr timeframe. Images were captured per well for each time point. Data were normalized to controls, and values for 50% inhibitory concentration were calculated using Prism V8.0 (GraphPad software).

A further data set deals with A549 lung cancer cells. Put plainly: Luminex multi-cytokine assay. The conditions noted are these: A549, 40 nmol/L, 24, 48, 72 hr. It is filed as cell-based, human. The procedure: Luminex multi-cytokine assay. […] Condition medium was harvested in 24, 48 and 72 hr after incubation. Condition medium was then subjected to a cytokine assay by using MILLIPLEX® MAP Human Cytokine Panel 1 (38 Plex) (Millipore, HCYTA-60K-PXBK38) in Luminex™ FLEXMAP 3D™ Instrument System.

In data set [4] the test system is H2009 cells. Put plainly: Proliferation assay (IncuCyte ZOOM), H2009. The conditions noted are these: Homo sapiens, NCI-H2009; read-out: IC50 from proliferation curves. It is filed as cell-based. How it is done:
as §1, §2

For the next data set, the system named is A549 and H2009 cells. Description: CellTiter-Glo cell viability, TP-0903 and/or ruxolitinib. The conditions noted are these: 20, 30 and 40 nmol/L, 72 hr. It is filed as cell-based, human. The procedure: Cell lines. A549 and H2009 cell lines were obtained from and authenticated by the American Type Culture Collection, and routinely maintained in RPMI-1640 medium supplemented 10% FBS, penicillin (100 units/mL) and streptomycin ([…]) in aired with 5% CO^2 at 37° C. The absence of Mycoplasma contamination was validated using DAPI staining. […] The CellTiter-Glo Luminescent Cell Viability assay was used to determine cell responsiveness. shRNA knockdown was performed in A549 cells by using lentiviral delivery of short-hairpin AXL or vehicle plasmid pLKO.1 puro in two biological repeats (Addgene; Table 3).
On the technique in general: ATP-based viability assays read luminescence as a measure of living cells.

The test system of data set [5] is patient-derived organoids (PDOs). Put plainly: Patient-derived organoid CellTiter-Glo cell viability. It is filed as cell-based, human. How it is done:
Patient-derived organoids (PDOs). Tumor tissues were minced on ice into 1 mm^3 small pieces. Tumor pieces (˜20 μl in volume) were resuspended in 200 μl Matrigel and seeded into 24 well plates for 15 min until gel solidify, followed by culture in advanced DMEM/F12 medium supplemented with B27 and N2 (Thermo Fisher Scientific), 0.01% BSA (Roche), 100 units/m penicillin-streptomycin (Thermo Fisher Scientific), and others (Table 4) for 4-8 weeks to grow organoids. […] The CellTiter-Glo Luminescent Cell Viability assay was used to determine drug responsiveness.

Turning to `CN1CCN(Cc2ccc(Nc3ncc(Cl)c(Nc4ccccc4S(=O)(=O)N(C)C)n3)cc2)CC1` [TP-0903], the tolerability in patients result in data set [1] is listed as “well tolerated”. For the same molecule, the deformation entry in the data set with H2009 cells [2] (H2009) was “not significantly affected”. In addition, in the data set with H2009 cells [2] (H2009, 40 nmol/L, 24 hr), the increase of adhesion came to 35%. This molecule returned an increase of stiffness in the data set with H2009 cells [2] (H2009, 40 nmol/L, 24 hr) of 61%. In addition, in the data set on A549 mouse xenograft, the “effect on body weight” value was “without any adverse effects”. Further, the “tumor size / growth” value in the data set with A549 mouse xenograft (21 days) is reported as “substantial tumor size regression; also recorded: Growth inhibition was confirmed”. Further, the IC50 stood at 12.9 nM in the data set with H226 cells and 35.5 nM with H2009 cells [4]. The “cytotoxicity based on cell morphology” value in data set [3] (A549 and H2009, increasing concentrations) is recorded as “did not result in significant cytotoxicity”. Moreover, the migration potential result in data set [3] (increasing concentrations, 0-200 nM) is “significantly impeded”. In addition, the “IL-8, VEGF, and IL-11 secretion” value in the data set on A549 lung cancer cells is “decreased”. The “sensitivity (cell viability), A549 compared with H2009” value with A549 and H2009 cells was “more sensitive”. Further, in data set [5] (PDOs from tumors with high AXL and JAK1), the PDO sensitivity result is reported as “sensitive”. Besides, the “PDO response (cell viability)” value in data set [5] (PDOs of Pt 008 and 010 (Category I/II), TP-0903 20 nmol/L or ruxolitinib 15 μmol/L, 72 hr) is recorded as “did not respond robustly”.
